Results taken from PubChem BioAssay (NCI).
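Step 1: Grow cells in 96-well plates. Step 2: Expose to compound for 48 hours at 5 concentrations. Step 3: Interpolate endpoints linearly; if unreached, use highest concentration. GI50 marks 50% less growth. TGI denotes the concentration required for complete inhibition of growth.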

Tests used:
Test in all cases: NCI anticancer screen, dose series, 48 h
SK-OV-3 ovarian = system: SK-OV-3 ovarian
NCI-H226 lung = system: NCI-H226 lung
ACHN renal = system: ACHN renal
HCC-2998 colon = system: HCC-2998 colon
MOLT-4 leukemia = system: MOLT-4 leukemia
HOP-62 NSCLC = system: HOP-62 NSCLC
RPMI-8226 leukemia = system: RPMI-8226 leukemia
LOX IMVI melanoma = system: LOX IMVI melanoma
IGROV1 ovarian = system: IGROV1 ovarian
HCT-15 colon = system: HCT-15 colon

Structure (SMILES) | TGI (SK-OV-3 ovarian) [µM] | TGI (NCI-H226 lung) [µM] | TGI (ACHN renal) [µM] | TGI (HCC-2998 colon) [µM] | TGI (MOLT-4 leukemia) [µM] | TGI (HOP-62 NSCLC) [µM] | TGI (RPMI-8226 leukemia) [µM] | TGI (LOX IMVI melanoma) [µM] | TGI (IGROV1 ovarian) [µM] | TGI (HCT-15 colon) [µM] | GI50 (SK-OV-3 ovarian) [µM] | GI50 (NCI-H226 lung) [µM] | GI50 (ACHN renal) [µM] | GI50 (HCC-2998 colon) [µM] | GI50 (MOLT-4 leukemia) [µM] | GI50 (HOP-62 NSCLC) [µM] | GI50 (RPMI-8226 leukemia) [µM] | GI50 (LOX IMVI melanoma) [µM] | GI50 (IGROV1 ovarian) [µM] | GI50 (HCT-15 colon) [µM]
COC(=O)C(Cc1nc2ccc(Cl)cc2[nH]c1=O)C(=O)C(=O)Nc1ccccc1[N+](=O)[O-] (stereo not drawn) | > 100 | > 100 | > 100 | > 100 | > 100 | > 100 | > 100 | > 100 | > 100 | > 100 |  |  |  |  |  |  |  |  |  | 
O=c1oc2ccc(Cl)cc2c(=O)n1-c1ccc(I)cc1F | 4.31 | 2.92 | 7.51 | 8.51 | 1.81 | 3.75 | 0.436 | 1.69 | > 42.3 | 6.74 | 0.451 | 0.566 | 0.315 | 2.66 | 0.384 | 0.855 | 0.0907 | 0.248 | 0.19 | 0.231
O=C1CCC2(c3ccccc3)Nc3cc(Cl)ccc3N12 (stereo not drawn) | 85.1 | 65.1 | 96.1 | > 100 | 57.9 | > 100 | 58.6 | > 100 | > 100 | > 100 |  |  |  |  |  |  |  |  |  | 
CC(C)OC(=O)c1ccc2[nH]c(O)c(C(=Nc3ccc(N(C)C(=O)CN4CCN(C)CC4)cc3)c3ccccc3)c2c1 | 1.34 | 2.83 | 1.4 | 2.21 | 2.16 | 2.4 | 1.79 | 1.43 | 1.24 | 1.52 | 0.308 | 1.1 | 0.332 | 0.792 | 0.274 | 0.471 | 0.385 | 0.298 | 0.0764 | 0.372
C[C@H](CS(C)(=O)=O)Nc1ncc2cc(Oc3ccc(F)cc3F)c(=O)n(C)c2n1 | > 25 | > 25 | > 25 | > 25 | > 25 | > 25 | > 25 | > 25 | > 25 | > 25 | > 25 | > 25 | > 25 | > 25 | > 25 | > 25 | > 25 | > 25 | > 25 | > 25
C=C(C)CCC(C)N1CCC(N2CCC(C(=O)NCCc3ccccc3)CC2)CC1 (stereo not drawn) | 77.3 | > 100 | 53.8 | > 100 | > 100 | > 100 | > 100 | 35.5 | > 100 | 57.6 | 21.2 | 96.6 | 17.2 | 37.9 | 45.9 | 68.9 | 10.1 | 15.8 | > 100 | 16.7
CCOC(=O)c1cnn(-c2ccnc3c(C(F)(F)F)cccc23)c1N | > 100 | > 100 | > 100 | > 100 | > 100 | > 100 | > 100 | > 100 | > 100 | > 100 | > 100 | > 100 | > 100 | > 100 | > 100 | > 100 | 98.4 | > 100 | > 100 | > 100
CC(=O)Oc1ccccc1C(=O)C1c2cccc(O)c2C(=O)c2c(O)cccc21 | 1.68 | 3.7 | 3.45 | 6.5 | 6.01 | 3.4 | 2.48 | 4.19 | 2.85 | 9.56 |  |  |  |  |  |  |  |  |  | 
CC1=CC(=O)C(C(C)=Nc2ccccc2Cl)C(=O)O1 (stereo not drawn) | > 100 | > 100 | > 100 | > 100 | > 100 | > 100 | > 100 | > 100 | > 100 | > 100 | > 100 | > 100 | > 100 | > 100 | > 100 | > 100 | > 100 | > 100 | 76.2 | > 100
COc1ccc2c(c1)nc(N)c1c3cccnc3cn21 | > 79.3 | 27 | 15 | 17.5 | > 100 | > 78.9 | 34.2 | 18.7 | 37.1 | 33.7 | 0.0508 | 0.737 | 0.0938 | 0.103 | 0.0861 | 0.273 | 0.0546 | 0.0713 | 0.106 | 0.0456
CCCCC[C@H]1C/C=C2/C(=O)C(Cl)=C[C@@H]2C/C=C\CCCC(=O)O[C@@H](CCCCC)C/C=C2/C(=O)C(Cl)=C[C@@H]2C/C=C\CCCC(=O)O1 | 4.18 | 0.86 | 2.15 | 0.651 | 1.71 | 1.01 | 0.973 | 0.437 | 0.958 | 1.85 | 0.966 | 0.38 | 0.623 | 0.349 | 0.234 | 0.416 | 0.188 | 0.201 | 0.342 | 0.49
Cc1cccc(C(C)(C)C)c1NC(=O)C(=O)C(c1cnc2ccccc2n1)[N+](=O)[O-] (stereo not drawn) | > 100 | > 100 | > 100 | > 100 | > 100 | > 100 | > 100 | > 100 | > 100 | > 100 |  |  |  |  |  |  |  |  |  | 
NCc1ccc(-n2c(-c3nonc3N)nc3cnccc32)cc1 | > 25 | > 25 | > 25 | > 25 | > 25 | > 25 | > 25 | > 25 | > 25 | > 25 | > 25 | 0.912 | 5.68 | 23.8 | 12.3 | > 14.4 | > 23.2 | 17.1 | > 25 | 6.85
Cc1c2ccncc2c(C)c2c1[nH]c1ccc(OC(C)(C)C)cc12 | 18.8 | 14.8 |  | 3.78 | 4.66 | 9.74 | 5.49 | 7.53 | 26.8 |  |  |  |  |  |  |  |  |  |  | 
